For 23 compounds, IC50 results are on record in US8748417B2, “Amino-pyrrolidine-azetidine diamides as monoacylglycerol lipase inhibitors” (Janssen Pharmaceutica, NV, priority 2010, dated 2014).

By pIC50 is commonly meant −log10 of the IC50, conventionally taken in molar units.

Substitutions are numbered along the chain they refer to. pIC50: −log10 of the molar value.

In one test the target is T1, purified mutant MGL (mut-MGLL 11-313 L179S L186S) (Homo sapiens, UniProt Q99685, L169S/L176S).
T1 construct: purified mutant MGL (mut-MGLL 11-313 L179S L186S)
T1 sequence (Q99685 1-303 L169S/L176S): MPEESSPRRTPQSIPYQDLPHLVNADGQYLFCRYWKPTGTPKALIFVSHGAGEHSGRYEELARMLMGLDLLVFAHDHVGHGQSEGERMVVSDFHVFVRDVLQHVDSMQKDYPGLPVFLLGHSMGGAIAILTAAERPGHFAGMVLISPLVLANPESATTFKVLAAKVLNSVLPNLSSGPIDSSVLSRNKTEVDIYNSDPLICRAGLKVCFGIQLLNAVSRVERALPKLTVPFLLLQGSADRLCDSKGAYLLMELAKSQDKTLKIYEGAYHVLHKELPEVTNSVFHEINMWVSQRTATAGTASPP
Kind of test: MGL enzyme activity assay (4MU-B cleavage), mutant MGL. The following applies: mutant MGL 5 nM, 4MU-B 10 μM, 37° C.; read-out: MGL mutant inh IC50. In kind it is biochemical. As for the experimental part:
All rate-based assays were performed in black 384-well polypropylene PCR microplates (Abgene) in a total volume of 30 μL. Substrate 4-methylumbelliferyl butyrate (4MU-B; Sigma) and either purified mutant MGL (mut-MGLL 11-313 L179S L186S) or purified wild type MGL (wt-MGLL 6H-11-313) were diluted separately into 20 mM PIPES buffer (pH=7.0), containing 150 mM NaCl and 0.001% Tween 20. Compounds of Formula (I) were pre-dispensed (50 nL) into the assay plate using a Cartesian Hummingbird prior to adding 4MU-B (25 μL of 1.2× solution to a final concentration of 10 μM) followed by enzyme (5 μL of a 6× solution to a final concentration of 5 nM) to initiate the reaction. Final compound concentrations ranged from 17 to 0.0003 μM. The fluorescence change due to 4MU-B cleavage was monitored with excitation and emission wavelengths of 335 and 440 nm, respectively, and a bandwidth of 10 nm (Safire^2, Tecan) at 37° C. for 5 min.
The IC50 values for the following compounds were determined using Microsoft Office Excel from a fit of the equation to the concentration-response plot of the fractional activity as a function of inhibitor concentration.
Turning to `O=C(c1nccs1)N1CC[C@H](NC2CN(C(=O)N3CCc4cc(Br)ccc4C3)C2)C1` [Cpd 10, (S)-(3-((1-(6-Bromo-1,2,3,4-tetrahydroisoquinoline-2-carbonyl)azetidin-3-yl)amino)pyrrolidin-1-yl)(thiazol-2-yl)methanone], the pIC50 is 5.54.
In the case of `O=C(c1nccs1)N1CC[C@H](NC2CN(C(=O)N3CCc4cc(-c5ccccc5)ccc4C3)C2)C1` [Cpd 11, (S)-(3-((1-(6-Phenyl-1,2,3,4-tetrahydroisoquinoline-2-carbonyl)azetidin-3-yl)amino)pyrrolidin-1-yl)(thiazol-2-yl)methanone], the pIC50 is 6.46.
As to `O=C(c1nccs1)N1CC[C@H](NC2CN(C(=O)N3Cc4ccc(Br)cc4C3)C2)C1` [Cpd 12, (3S)-N-{1-[(5-Bromo-1,3-dihydro-2H-isoindol-2-yl)carbonyl]azetidin-3-yl}-1-(1,3-thiazol-2-ylcarbonyl)pyrrolidin-3-amine], the negative logarithm of the IC50 (pIC50) was 5.21.
As for `O=C(c1nccs1)N1CC[C@H](NC2CN(C(=O)N3Cc4ccc(-c5ccccc5)cc4C3)C2)C1` [Cpd 13, (3S)-N-{1-[(5-Phenyl-1,3-dihydro-2H-isoindol-2-yl)carbonyl]azetidin-3-yl}-1-(1,3-thiazol-2-ylcarbonyl)pyrrolidin-3-amine], the pIC50 is 6.14.
Turning to `O=C(c1ccccc1)N1CC[C@H](NC2CN(C(=O)c3cc4cc(C(F)(F)F)ccc4s3)C2)C1` [Cpd 19, (3S)-1-(Phenylcarbonyl)-N-(1-{[5-(trifluoromethyl)-1-benzothiophen-2-yl]carbonyl}azetidin-3-yl)pyrrolidin-3-amine], the pIC50 was 6.44.
Still for that read-out and setting: the result for `O=C(c1ccc2c(-c3ccc(OC(F)(F)F)cc3)cccc2c1)N1CC(N[C@H]2CCN(C(=O)c3ccccc3)C2)C1` [Cpd 26, (3S)-1-(Phenylcarbonyl)-N-[1-({5-[4-(trifluoromethoxy)phenyl]naphthalen-2-yl}carbonyl)azetidin-3-yl]pyrrolidin-3-amine] reads 6.90.
In the case of `O=C(c1ccc(-c2ccc(C(F)(F)F)cc2)cc1)N1CC(N[C@H]2CCN(C(=O)c3ccccc3)C2)C1` [Cpd 35, (3S)-1-(Phenylcarbonyl)-N-(1-{[4′-(trifluoromethyl)biphenyl-4-yl]carbonyl}azetidin-3-yl)pyrrolidin-3-amine], the pIC50 was 6.80.
With `O=C(c1ccc(-c2ccc(OC(F)(F)F)cc2)cc1)N1CC(N[C@H]2CCN(C(=O)c3ccccc3)C2)C1` [Cpd 36, (3S)-1-(Phenylcarbonyl)-N-(1-{[4′-(trifluoromethoxy)biphenyl-4-yl]carbonyl}azetidin-3-yl)pyrrolidin-3-amine], the pIC50 was 6.72.
The same measure, in the same setting: the result for `O=C(c1ccccc1)N1CC[C@H](NC2CN(C(=O)c3cc4ccc(Br)cc4s3)C2)C1` [Cpd 38, (3S)-N-{1-[(6-Bromo-1-benzothiophen-2-yl)carbonyl]azetidin-3-yl}-1-(phenylcarbonyl)pyrrolidin-3-amine] reads 6.52.
Same read-out and setting: the figure for `O=C(c1ccccc1)N1CC[C@H](NC2CN(C(=O)c3cc4ccc(-c5ccc(C(F)(F)F)cc5)cc4s3)C2)C1` [Cpd 43, (3S)-1-(Phenylcarbonyl)-N-[1-({6-[4-(trifluoromethyl)phenyl]-1-benzothiophen-2-yl}carbonyl)azetidin-3-yl]pyrrolidin-3-amine] is 6.57.
As for `O=C(c1ccc(-c2ccccc2)cc1)N1CC(N[C@H]2CCN(C(=O)c3ccc(F)cc3)C2)C1` [Cpd 45, (3S)-N-[1-(Biphenyl-4-ylcarbonyl)azetidin-3-yl]-1-[(4-fluorophenyl)carbonyl]pyrrolidin-3-amine], the pIC50 is 5.79.
`O=C(c1ccc(-c2ccccc2)cc1)N1CC(N[C@H]2CCN(C(=O)c3cccc(F)c3)C2)C1` [Cpd 46, (3S)-N-[1-(Biphenyl-4-ylcarbonyl)azetidin-3-yl]-1-[(3-fluorophenyl)carbonyl]pyrrolidin-3-amine]: the pIC50 is 6.47.
As to `O=C(c1ccc(-c2ccccc2)cc1)N1CC(N[C@H]2CCN(C(=O)c3cc4ccccc4o3)C2)C1` [Cpd 47, (3S)-1-(1-Benzofuran-2-ylcarbonyl)-N-[1-(biphenyl-4-ylcarbonyl)azetidin-3-yl]pyrrolidin-3-amine], the pIC50 was 4.96.
Take `O=C(c1ccc(-c2ccccc2)cc1)N1CC(N[C@H]2CCN(C(=O)c3cc4ccccc4s3)C2)C1` [Cpd 48, (3S)-1-(1-Benzothiophen-2-ylcarbonyl)-N-[1-(biphenyl-4-ylcarbonyl)azetidin-3-yl]pyrrolidin-3-amine]: the pIC50 was 5.05.
Same read-out and setting: the figure for `O=C(c1ccccc1)N1CC[C@H](NC2CN(C(=O)c3cc4cc(Br)ccc4s3)C2)C1` [Cpd 49, (3S)-N-{1-[(5-Bromo-1-benzothiophen-2-yl)carbonyl]azetidin-3-yl}-1-(phenylcarbonyl)pyrrolidin-3-amine] is 6.45.
On the same count and under the same terms, the result for `O=C(c1ccccc1)N1CC[C@H](NC2CN(C(=O)c3cc4cc(-c5cccc(C(F)(F)F)c5)ccc4s3)C2)C1` [Cpd 51, (3S)-1-(Phenylcarbonyl)-N-[1-({5-[3-(trifluoromethyl)phenyl]-1-benzothiophen-2-yl}carbonyl)azetidin-3-yl]pyrrolidin-3-amine] reads 6.64; that for `O=C(c1ccccc1)N1CC[C@H](NC2CN(C(=O)c3cc4cc(-c5ccc(C(F)(F)F)cc5)ccc4s3)C2)C1` [Cpd 52, (3S)-1-(Phenylcarbonyl)-N-[1-({5-[4-(trifluoromethyl)phenyl]-1-benzothiophen-2-yl}carbonyl)azetidin-3-yl]pyrrolidin-3-amine], 6.65; that for `O=C(c1ccc(-c2ccccc2)cc1)N1CC(NC2CN(C(=O)c3ccccc3)CC2F)C1` (stereo not drawn) [Cpd 58, N-[1-(Biphenyl-4-ylcarbonyl)azetidin-3-yl]-4-fluoro-1-(phenylcarbonyl)pyrrolidin-3-amine], 7.48.
Turning to `O=C(c1ccc(-c2ccccc2)cc1)N1CC(N[C@@H]2CN(C(=O)c3ccccc3)CC2F)C1` (stereo partly drawn) [Cpd 60, (3R)-N-[1-(Biphenyl-4-ylcarbonyl)azetidin-3-yl]-4-fluoro-1-(phenylcarbonyl)pyrrolidin-3-amine], the pIC50 was less than 4.78.
Still for that read-out and setting: the result for `O=C(c1ccccc1)N1CC[C@H](NC2CN(C(=O)c3sc4ccccc4c3-c3ccccc3)C2)C1` [Cpd 65, (3S)-N-{1-[(3-Phenyl-1-benzothiophen-2-yl)carbonyl]azetidin-3-yl}-1-(phenylcarbonyl)pyrrolidin-3-amine] reads 6.99.
Still for that read-out and setting: the figure for `O=C(c1ccccc1)N1CC[C@H](NC2CN(C(=O)c3sc4ccccc4c3C3CC3)C2)C1` [Cpd 66, (3S)-N-{1-[(3-Cyclopropyl-1-benzothiophen-2-yl)carbonyl]azetidin-3-yl}-1-(phenylcarbonyl)pyrrolidin-3-amine] is 6.67; for `O=C(c1ccccc1)N1CCC(NC2CN(C(=O)c3ccc(C(F)c4ccc(C(F)(F)F)cc4)cc3)C2)C1` (stereo not drawn) [Cpd 69, N-{1-[(4-{Fluoro[4-(trifluoromethyl)phenyl]methyl}phenyl)carbonyl]azetidin-3-yl}-1-(phenylcarbonyl)pyrrolidin-3-amine] it is 6.70.
On the same count and under the same terms, the result for `COC1CN(C(=O)c2ccccc2)CC1NC1CN(C(=O)c2ccc(-c3cccc(C(F)(F)F)c3)cc2)C1` (stereo not drawn) [Cpd 71, trans--4-Methoxy-1-(phenylcarbonyl)-N-(1-{[3′-(trifluoromethyl)biphenyl-4-yl]carbonyl}azetidin-3-yl)pyrrolidin-3-amine] reads 5.25.

The target of the next test is T2, purified wild type MGL (wt-MGLL 6H-11-313) (Homo sapiens, UniProt Q99685).
T2 construct: purified wild type MGL (wt-MGLL 6H-11-313)
T2 sequence (Q99685 1-303): T1 sequence (Q99685 1-303 L169S/L176S) with S169L, S176L
In words: MGL enzyme activity assay (4MU-B cleavage), wild type MGL. In kind it is biochemical. The conditions noted are these: wild type MGL 5 nM, 4MU-B 10 μM, 37° C.; read-out: MGL wild type inh IC50. Put shortly:
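Enzyme in 20 mM PIPES pH 7.0, 150 mM NaCl, 0.001% Tween 20 with 4MU-B at 10 μM final and MGL at 5 nM final; compounds 17 to 0.0003 μM final, enzyme added last. Fluorescence (ex 335/em 440 nm) followed at 37° C for 5 min; IC50 from fit of fractional activity versus inhibitor concentration.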
With `O=C(c1ccccc1)N1CC[C@H](NC2CN(C(=O)c3cc4cc(Br)ccc4s3)C2)C1` [Cpd 49, (3S)-N-{1-[(5-Bromo-1-benzothiophen-2-yl)carbonyl]azetidin-3-yl}-1-(phenylcarbonyl)pyrrolidin-3-amine], the pIC50 is 6.32.
Consider `O=C(c1ccccc1)N1CC[C@H](NC2CN(C(=O)c3cc4cc(-c5cccc(C(F)(F)F)c5)ccc4s3)C2)C1` [Cpd 51, (3S)-1-(Phenylcarbonyl)-N-[1-({5-[3-(trifluoromethyl)phenyl]-1-benzothiophen-2-yl}carbonyl)azetidin-3-yl]pyrrolidin-3-amine], for which the pIC50 was greater than 8.30.
As to `O=C(c1ccccc1)N1CC[C@H](NC2CN(C(=O)c3cc4cc(-c5ccc(C(F)(F)F)cc5)ccc4s3)C2)C1` [Cpd 52, (3S)-1-(Phenylcarbonyl)-N-[1-({5-[4-(trifluoromethyl)phenyl]-1-benzothiophen-2-yl}carbonyl)azetidin-3-yl]pyrrolidin-3-amine], the pIC50 is 8.18.
On the same count and under the same terms, the figure for `O=C(c1ccc(-c2ccccc2)cc1)N1CC(NC2CN(C(=O)c3ccccc3)CC2F)C1` (stereo not drawn) [Cpd 58, N-[1-(Biphenyl-4-ylcarbonyl)azetidin-3-yl]-4-fluoro-1-(phenylcarbonyl)pyrrolidin-3-amine] is 6.33.
